Source: patent US9650339B2, “Inhibitors of histone demethylases” (Gilead Sciences, Inc., priority 2013, dated 2017)
pIC50: −log10 of the molar value.

What was measured:
[1] = target: T1, KDM4C (Homo sapiens, UniProt Q9H3R0); assay: Histone lysine demethylase immunofluorescence assay, U2OS cells transfected with KDM4C; type: cell-based; conditions: U2OS cells transfected with pCMVHA KDM4C; mark detected H3K9me3; 20 hours
T1 construct: Full length; host or cells: U2OS
T1 sequence (Q9H3R0 1-1056): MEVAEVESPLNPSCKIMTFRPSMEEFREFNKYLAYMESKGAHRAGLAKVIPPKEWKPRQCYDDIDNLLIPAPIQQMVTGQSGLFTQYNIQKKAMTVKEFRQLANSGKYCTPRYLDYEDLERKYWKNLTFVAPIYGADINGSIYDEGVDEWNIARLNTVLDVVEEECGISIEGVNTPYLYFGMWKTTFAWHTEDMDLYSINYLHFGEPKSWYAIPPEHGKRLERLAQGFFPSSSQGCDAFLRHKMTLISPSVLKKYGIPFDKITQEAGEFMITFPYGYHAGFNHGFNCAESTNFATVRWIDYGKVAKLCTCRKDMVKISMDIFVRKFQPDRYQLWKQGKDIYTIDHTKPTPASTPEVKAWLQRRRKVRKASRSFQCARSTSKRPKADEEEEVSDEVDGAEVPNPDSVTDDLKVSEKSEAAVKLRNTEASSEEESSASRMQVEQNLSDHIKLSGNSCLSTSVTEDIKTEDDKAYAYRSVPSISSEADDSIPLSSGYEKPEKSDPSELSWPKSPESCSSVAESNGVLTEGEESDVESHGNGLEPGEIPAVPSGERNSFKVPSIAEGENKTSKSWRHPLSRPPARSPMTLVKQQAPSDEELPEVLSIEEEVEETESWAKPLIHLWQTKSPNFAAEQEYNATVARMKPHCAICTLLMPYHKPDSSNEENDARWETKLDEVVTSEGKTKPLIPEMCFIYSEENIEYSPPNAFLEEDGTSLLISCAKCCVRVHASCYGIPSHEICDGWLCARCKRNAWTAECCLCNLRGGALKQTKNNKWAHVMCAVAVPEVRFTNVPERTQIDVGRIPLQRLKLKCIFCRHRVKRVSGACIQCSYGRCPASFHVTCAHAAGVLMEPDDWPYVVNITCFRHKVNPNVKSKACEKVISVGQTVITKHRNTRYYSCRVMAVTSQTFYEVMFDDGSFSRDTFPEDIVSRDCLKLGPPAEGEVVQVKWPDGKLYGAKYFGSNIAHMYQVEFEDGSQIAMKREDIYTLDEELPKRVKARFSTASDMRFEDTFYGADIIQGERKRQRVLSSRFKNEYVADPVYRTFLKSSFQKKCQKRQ
Method in brief: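 U2OS cells were transiently transfected with HA-tagged demethylase and reseeded after 6 h into compound-containing DMEM/10% FBS for 20 h. Cells were fixed in formaldehyde and immunostained for HA and the relevant histone methyl mark, then imaged. IC50 is based on mean mark staining in HA+ transfected cells.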

[2] = target: T2, KDM3B (JMJD1B) (Homo sapiens, UniProt Q7LBC6); assay: Histone lysine demethylase AlphaLISA assay, KDM3B; type: biochemical; conditions: read-out: KDM3B HDME Inhibition IC50
T2 construct: 842-1761; host or cells: Bac (baculovirus system)
T2 sequence (Q7LBC6 842-1761): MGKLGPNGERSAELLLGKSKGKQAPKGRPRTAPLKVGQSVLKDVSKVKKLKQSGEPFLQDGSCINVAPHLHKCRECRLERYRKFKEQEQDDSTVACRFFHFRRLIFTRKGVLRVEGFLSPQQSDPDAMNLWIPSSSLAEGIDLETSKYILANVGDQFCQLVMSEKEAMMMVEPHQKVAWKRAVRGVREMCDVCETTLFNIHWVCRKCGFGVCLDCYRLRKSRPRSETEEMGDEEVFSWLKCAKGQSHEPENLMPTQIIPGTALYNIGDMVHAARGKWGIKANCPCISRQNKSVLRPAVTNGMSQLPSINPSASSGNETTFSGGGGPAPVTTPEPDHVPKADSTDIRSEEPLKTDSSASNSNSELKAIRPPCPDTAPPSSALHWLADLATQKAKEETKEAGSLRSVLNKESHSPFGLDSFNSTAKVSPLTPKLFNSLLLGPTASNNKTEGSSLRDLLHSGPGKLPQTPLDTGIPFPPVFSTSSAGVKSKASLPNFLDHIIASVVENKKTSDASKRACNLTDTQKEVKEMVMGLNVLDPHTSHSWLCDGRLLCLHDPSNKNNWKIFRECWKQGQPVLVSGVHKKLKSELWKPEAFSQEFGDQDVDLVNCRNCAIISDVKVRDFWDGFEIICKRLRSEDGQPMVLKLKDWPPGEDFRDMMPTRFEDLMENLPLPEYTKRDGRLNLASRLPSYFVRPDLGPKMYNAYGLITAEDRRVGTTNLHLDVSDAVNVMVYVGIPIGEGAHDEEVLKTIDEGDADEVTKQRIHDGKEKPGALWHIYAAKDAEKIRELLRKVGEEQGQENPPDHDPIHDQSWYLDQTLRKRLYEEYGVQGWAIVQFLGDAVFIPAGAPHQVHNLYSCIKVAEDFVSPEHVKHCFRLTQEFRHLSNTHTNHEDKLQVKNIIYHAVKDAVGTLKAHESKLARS
Method in brief: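 Steps: enzyme equilibrated 10 min in buffer; compounds in 3% DMSO solution added, 10 min; substrate mix added (peptide, 25 μM L-Asc, 10 μM α-KG), room temperature; acceptor beads, then streptavidin donor beads, dark incubations; plate read.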

Structure (SMILES) | pIC50 [1] | pIC50 [2]
CN(C)CCNCc1ccnc(CNCCCN(C)Cc2ccccc2)c1 [Compound 18, benzyl[3-({[4-({[2-(dimethylamino)ethyl]-amino}methyl)pyridin-2-yl]methyl}-amino)propyl]-methylamine] |  | < 5.60
COCCNCc1ccnc(CNCCCN(C)Cc2ccccc2)c1 [Compound 19, benzyl(3-{[(4-{[(2-methoxyethyl)amino]-methyl}pyridin-2-yl)methyl]amino}-propyl)methylamine] | < 5.60 | < 5.60
COc1ccccc1CN1CCC(NC(=O)CNCc2cc(CNC3CC3)ccn2)CC1 [Compound 20, 2-[({4-[(cyclopropylamino)-methyl]pyridin-2-yl}methyl)amino]-N-{1-[(2-methoxyphenyl)methyl]-piperidin-4-yl}acetamide] | < 5.60 | < 5.60
COC(=O)CNCc1cc(/C=N/C2CC2)ccn1 [Compound 59, methyl 2-[({4-[N-cyclopropyl-carboximidoyl]pyridin-2-yl}methyl)amino]-acetate] | < 5.60 | < 5.60
O=Cc1ccnc(CNCCCCN(Cc2ccccc2)C2CC2)c1 [Compound 109, 2-[({4-[benzyl-(cyclopropyl)amino]-butyl}amino)methyl]-pyridine-4-carbaldehyde] | < 5.60 | < 5.60

The next lines start with the values.

pIC50 [1] | pIC50 [2] | Structure (SMILES)
5.60 to 6.60 | < 5.60 | CN(C)CCCCNCc1cc(CN)ccn1 [Compound 2, [2-({[4-(dimethylamino)butyl]-amino}methyl)pyridin-4-yl]methanamine]
5.60 to 6.60 |  | CCN(CCN(C)C)C(=O)CN(Cc1cc(CNC(=O)C(F)(F)F)ccn1)C(=O)C(F)(F)F [Compound 26, N-[(2-{[N-({[2-(dimethylamino)ethyl]-(ethyl)carbamoyl}-methyl)-2,2,2-trifluoroacetamido]-methyl}pyridin-4-yl)methyl]-2,2,2-trifIuoroacetamide]
5.60 to 6.60 |  | CCN(CC)CCCCNCc1cc(C2NCCCN2C)ccn1 (stereo not drawn) [Compound 68, [4-(diethylamino)butyl]({[4-(1-methyl-1,3-diazinan-2-yl)pyridin-2-yl]methyl})amine]
< 5.60 | < 5.60 | O=Cc1ccnc(CNCC(=O)NC2CCN(Cc3ccccc3)C2)c1 (stereo not drawn) [Compound 113, N-(1-benzylpyrrolidin-3-yl)-2-{[(4-formylpyridin-2-yl)methyl]amino}-acetamide]
